Measured values: PubChem BioAssay AID1053154 (Broad Institute, 2014)

System: HepG2, simvastatin, LDLR mRNA qPCR, 6 h
Experiment: LDLR mRNA change in statin-treated cells, late-stage follow-up, mechanism study for Trib1 inducer project, cell-based, HepG2, RT-PCR, simvastatin, cherry-pick (AID 1053154)
Conditions: stronger effect = higher value

Row | SMILES | fold change
1 | CN1C(=O)c2cc(NC(=O)c3ccc(C(F)(F)F)cc3)ccc2OC[C@@H]2O[C@@H](CC(=O)NC3Cc4ccccc4C3)CC[C@@H]21 | 10
2 | CN1C(=O)c2cc(NC(=O)c3ccc(C(F)(F)F)cc3)ccc2OC[C@@H]2O[C@H](CC(=O)NC3Cc4ccccc4C3)CC[C@@H]21 | 2
